Laboratory results reported in US10105467B2, “Biocompatible polymer compositions for tissue void filling” (Rutgers, The State University of New Jersey, priority 2013, dated 2018).

How the values were obtained:
[1] = tested on: MDA-MB-231 breast cancer cells; experiment: In vitro cytotoxicity, Alamar blue metabolic assay, scaffolds in transwell inserts; type: cell-based
Method: MDA-MB-231 breast cancer cells and primary human dermal fibroblasts (HDFs) were obtained from the ATCC (USA). Both cell types were cultured in DMEM supplemented with 10% fetal bovine serum (FBS) and 25 μg/mL Gentamicin. For toxicity studies HDFs were seeded at 5,000 cells per well/1 mL medium in a 12-well plate and allowed to reach confluency prior to application of experimental conditions. MDA-MB-231 cell were seeded in 12-well plates at a seeding density of 5,000 per well/1 mL medium and incubated at 37° C. in a humidified atmosphere of 95% air and 5% CO2 for 24 h prior to application of experimental conditions. […]
Cells subjected to these experimental conditions were allowed to culture for 6 days at which point cell viability was measured using Alamar blue metabolic assay. […] The supernatant from each well was transferred to a 96-well plate and was measured using a fluorescence plate reader (Tecan, Männedorf, Switzerland) by applying wavelength excitation of 560 nm and read it at emission of 590 nm, which is directly correlated to the viable cell number, and inversely correlated with the toxicity of the cross-linked polymer tissue scaffolds. The mean absorbance for each treatment was determined and then expressed as a percent of viability relative to the control. […]

[2] = tested on: rabbit liver esterase; experiment: Incubation with rabbit liver esterase, HPLC analysis; type: in vitro ADME; conditions: 30 min

conversion to the free acid [2] | SMILES | IC50 ([1]; Homo sapiens, 144 h, MDA-MB-231, 6 days, free curcumin dissolved in DMSO, diluted in media, max 1% DMSO) [µM] | curcumin uptake by cells or degradation after addition to media ([1]; free curcumin added to cell culture media)
 | COc1cc(/C=C/C(=O)CC(=O)/C=C/c2ccc(O)c(OC)c2)ccc1O [free curcumin, curcumin] | 14 | less than 48 hours
approximately 70% | CCOC(=O)[C@H](Cc1ccc(O)cc1)NC(=O)CCc1ccc(O)cc1 [DTE, desaminotyrosyl-tyrosine ethyl ester] |  | 
